Source: PubChem BioAssay AID330 (DTP/NCI, 2004)
Values joined by “and” are separate entries in the source; they are usually repeats but may differ in a detail not shown here. Equal entries are not always repeated. Inconclusive results and toxic doses are left out.

System: P388 leukemia ip, CD2F1 mice, survival T/C
Assay: NCI In Vivo Anticancer Drug Screen. Data for tumor model P388 Leukemia (intraperitoneal) in CD2F1 (CDF1) mice
Conditions: endpoint: median survival time, higher = longer survival
Procedure, shortened: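 Mice carrying the transplanted tumor received test compound or vehicle. Survival was recorded in each group, and the value is the treated-group measurement divided by that of the vehicle-treated control group.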

[1] = dose: 50.0 mg/kg/injection, schedule: Q01DX009 (ip), vehicle: saline
[2] = dose: 100.0 mg/kg/injection, schedule: Q01DX009 (ip), vehicle: saline
[3] = dose: 200.0 mg/kg/injection, schedule: Q01DX009 (ip), vehicle: saline
[4] = dose: 50.0 mg/kg/injection, schedule: Q01DX005 (ip), vehicle: saline with Tween-80
[5] = dose: 100.0 mg/kg/injection, schedule: Q01DX005 (ip), vehicle: saline with Tween-80
[6] = dose: 200.0 mg/kg/injection, schedule: Q01DX005 (ip), vehicle: saline with Tween-80
[7] = dose: 50.0 mg/kg/injection, schedule: Q01DX009 (ip), vehicle: Klucel (hydroxypropylcellulose) (HPC)
[8] = dose: 100.0 mg/kg/injection, schedule: Q01DX009 (ip), vehicle: Klucel (hydroxypropylcellulose) (HPC)
[9] = dose: 60.0 mg/kg/injection, schedule: Q01DX005 (ip), vehicle: saline with Tween-80
[10] = dose: 120.0 mg/kg/injection, schedule: Q01DX005 (ip), vehicle: saline with Tween-80
[11] = dose: 240.0 mg/kg/injection, schedule: Q01DX005 (ip), vehicle: saline with Tween-80
[12] = dose: 100.0 mg/kg/injection, schedule: Q01DX001 (ip), vehicle: saline
[13] = dose: 200.0 mg/kg/injection, schedule: Q01DX001 (ip), vehicle: saline
[14] = dose: 400.0 mg/kg/injection, schedule: Q01DX001 (ip), vehicle: saline

`CN1C(=O)C2N(C(=O)C1(C)S)c1ccccc1C2(C)C` (configuration not stated) was tested, and the T/C [1] was 102 % of control, the T/C [2] was 93 % of control and the T/C [3] was 101 % of control.
With `COc1cc(NC(=O)CNC(=O)CNC(=O)C(N)CC(C)C)cc2ccccc12` (configuration not stated) the T/C (dose: 50.0 mg/kg/injection, schedule: Q01DX005 (ip), vehicle: Klucel (hydroxypropylcellulose) (HPC)) was 100 % of control, the T/C (dose: 100.0 mg/kg/injection, schedule: Q01DX005 (ip), vehicle: Klucel (hydroxypropylcellulose) (HPC)) was 96 % of control and the T/C (dose: 200.0 mg/kg/injection, schedule: Q01DX005 (ip), vehicle: Klucel (hydroxypropylcellulose) (HPC)) was 100 % of control.
With `Cc1cnc(C)[nH]1` the T/C [4] was 102 % of control, the T/C [5] was 86 % of control and the T/C [6] was 102 % of control.
`Cc1ccnc(Nc2nnc(Nc3cc(C)ccn3)c3ccccc23)c1` was tested, and the T/C [4] was 100 % of control, the T/C [5] was 97 % of control and the T/C [6] was 97 % of control.
With `Cc1c(CN2CCOC(c3ccccc3)C2C)c(=O)n(-c2ccccc2)n1C` (configuration not stated) the T/C [7] was 93 % of control and the T/C [8] was 103 % of control.
For `CCOc1ccc2ccc3ccc(OCC)nc3c2n1`, the T/C [9] was 89 % of control, the T/C [10] was 98 % of control and the T/C [11] was 95 % of control.
In the case of `O=C(NC(=O)c1c(F)cccc1F)Nc1nc2ccccc2s1`, the T/C (dose: 6.25 mg/kg/injection, schedule: Q01DX009 (ip), vehicle: saline with Tween-80) is reported as 113 % of control, the T/C (dose: 12.5 mg/kg/injection, schedule: Q01DX009 (ip), vehicle: saline with Tween-80) is reported as 100 % of control and the T/C (dose: 25.0 mg/kg/injection, schedule: Q01DX009 (ip), vehicle: saline with Tween-80) is reported as 105 % of control.
In the case of `CCn1c(=NC(=O)c2ccccc2O)sc2ccccc21`, the T/C [12] is reported as 98 % of control and 95 % of control, the T/C [13] is reported as 103 % of control and 95 % of control and the T/C [14] is reported as 100 % of control and 103 % of control.
For `CC(=O)NC(CC(=O)O)C(=O)O` (configuration not stated), the T/C [12] was 106 % of control, the T/C [13] was 100 % of control and the T/C [14] was 97 % of control.
In the case of `CN(C)/C(N)=N\c1ncccn1`, the T/C (dose: 12.5 mg/kg/injection, schedule: Q01DX009 (ip), vehicle: saline) is reported as 94 % of control, the T/C (dose: 25.0 mg/kg/injection, schedule: Q01DX009 (ip), vehicle: saline) is reported as 91 % of control and the T/C [1] is reported as 91 % of control. For the same compound, the T/C [2] was 93 % of control and the T/C [3] was 90 % of control.
With `COC(=O)c1cc(-c2ccc(Cl)c(Cl)c2)[nH]c(=O)c1C#N` the T/C [9] was 100 % of control, the T/C [10] was 103 % of control and the T/C [11] was 94 % of control.
For `O=C1c2ccccc2N(C(=O)CN2CCOCC2)CN1c1ccccc1`, the T/C [1] was 98 % of control, the T/C [2] was 100 % of control and the T/C [3] was 98 % of control.
With `COc1cc(/C=N/Nc2ccc([N+](=O)[O-])cc2)cc(OC)c1OC` the T/C (dose: 100.0 mg/kg/injection, schedule: Q04DX003 (ip), vehicle: saline with Tween-80) was 95 % of control and the T/C (dose: 400.0 mg/kg/injection, schedule: Q04DX003 (ip), vehicle: saline with Tween-80) was 87 % of control.
For `CCCCC[C@@H]1CC=CC(NC(=O)OCc2ccccc2)C1C=O` (some centres not stated), the T/C [9] was 100 % of control, the T/C [10] was 103 % of control and the T/C [11] was 105 % of control.
In the case of `O=C(c1ncccc1O)N1CCCCC1`, the T/C (dose: 12.5 mg/kg/injection, schedule: Q01DX009 (ip), vehicle: distilled water + Tween-80) is reported as 88 % of control, the T/C (dose: 50.0 mg/kg/injection, schedule: Q01DX009 (ip), vehicle: distilled water + Tween-80) is reported as 92 % of control and the T/C (dose: 100.0 mg/kg/injection, schedule: Q01DX009 (ip), vehicle: distilled water + Tween-80) is reported as 99 % of control. For the same compound, the T/C (dose: 200.0 mg/kg/injection, schedule: Q01DX009 (ip), vehicle: distilled water + Tween-80) was 100 % of control.
`Cc1cc(C)nc(/C=C(\NC(=O)c2ccccc2)c2ccccc2)c1` was tested, and the T/C [9] was 108 % of control, the T/C [10] was 102 % of control and the T/C [11] was 101 % of control.
With `Cc1cc(C)c2cc(=O)oc-2c(C)c1` the T/C (dose: 100.0 mg/kg/injection, schedule: Q01DX001 (ip), vehicle: Klucel (hydroxypropylcellulose) (HPC)) was 100 % of control, the T/C (dose: 200.0 mg/kg/injection, schedule: Q01DX001 (ip), vehicle: Klucel (hydroxypropylcellulose) (HPC)) was 103 % of control and the T/C (dose: 400.0 mg/kg/injection, schedule: Q01DX001 (ip), vehicle: Klucel (hydroxypropylcellulose) (HPC)) was 100 % of control.
`CCOc1ccc(N=Nc2c(O)n(-c3ccc(Br)cc3)c(=S)n(-c3ccc(OC)cc3)c2=O)cc1` was tested, and the T/C (dose: 100.0 mg/kg/injection, schedule: Q04DX002 (ip), vehicle: saline with Tween-80) was 91 % of control, the T/C (dose: 200.0 mg/kg/injection, schedule: Q04DX002 (ip), vehicle: saline with Tween-80) was 91 % of control and the T/C (dose: 400.0 mg/kg/injection, schedule: Q04DX002 (ip), vehicle: saline with Tween-80) was 94 % of control.
`CN(N=O)C(=O)NCCNC(=O)C1OC(n2ccc(=O)[nH]c2=O)C(O)C1O` (configuration not stated) was tested, and the T/C [2] was 108 % of control.
With `O=c1[nH][nH]c(=O)c2c1Nc1c(c(=O)[nH][nH]c1=O)C2c1ccncc1` the T/C [4] was 103 % of control, the T/C [5] was 108 % of control and the T/C [6] was 96 % of control.
In the case of `Cc1ccc(S(=O)(=O)N/N=C2/C(=O)N(c3ccc(Cl)cc3C)C(=O)C(=O)C2c2nc3ccccc3s2)cc1` (configuration not stated), the T/C [9] is reported as 98 % of control, the T/C [10] is reported as 103 % of control and the T/C [11] is reported as 104 % of control.
In the case of `O=C1c2c(Cl)c(Cl)c(Cl)c(Cl)c2C(=O)C2(Cl)CC=CCC12Cl` (configuration not stated), the T/C (dose: 6.25 mg/kg/injection, schedule: Q01DX005 (ip), vehicle: Klucel (hydroxypropylcellulose) (HPC)) is reported as 101 % of control, the T/C (dose: 12.5 mg/kg/injection, schedule: Q01DX005 (ip), vehicle: Klucel (hydroxypropylcellulose) (HPC)) is reported as 95 % of control and the T/C (dose: 25.0 mg/kg/injection, schedule: Q01DX005 (ip), vehicle: Klucel (hydroxypropylcellulose) (HPC)) is reported as 101 % of control.
`CSC1=Nc2cc3c(cc2C(=O)N2C[C@H](O)CC12)OCO3` (some centres not stated) was tested, and the T/C [4] was 108 % of control, the T/C [5] was 102 % of control and the T/C [6] was 94 % of control.
`CCS(=O)(=O)C(C(O)C(O)C(O)C(C)O)S(=O)(=O)CC` (configuration not stated) was tested, and the T/C [1] was 100 % of control, the T/C [2] was 100 % of control and the T/C [3] was 96 % of control.
With `CC(=O)CC(C)=NCCN=C(C)CC(C)=O.C[CH2][Sn][CH2]C` the T/C (dose: 12.5 mg/kg/injection, schedule: Q04DX003 (ip), vehicle: saline) was 106 % of control, the T/C (dose: 25.0 mg/kg/injection, schedule: Q04DX003 (ip), vehicle: saline) was 105 % of control and the T/C (dose: 50.0 mg/kg/injection, schedule: Q04DX003 (ip), vehicle: saline) was 120 % of control. The T/C (dose: 100.0 mg/kg/injection, schedule: Q04DX003 (ip), vehicle: saline) was 150 % of control.
For `Nc1nnc2nc(C(C(=O)c3ccccc3Cl)c3nc4nnc(N)n4[nH]c3=O)c(=O)[nH]n12`, the T/C [9] was 101 % of control, the T/C [10] was 98 % of control and the T/C [11] was 99 % of control.
In the case of `O=P(N1CC1)(N1CC1)N1CC1`, the T/C (dose: 3.0 mg/kg/injection, schedule: Q01DX009 (ip), vehicle: saline) is reported as 216 % of control.
In the case of `COCCO[Si](OCCOC)(OCCOC)c1ccccc1`, the T/C [7] is reported as 101 % of control, the T/C [8] is reported as 107 % of control and the T/C (dose: 200.0 mg/kg/injection, schedule: Q01DX009 (ip), vehicle: Klucel (hydroxypropylcellulose) (HPC)) is reported as 117 % of control.
